# Test results: patent US6025333A, “Treatment of CNS tumors with metalloprotease inhibitors” (Erziehungsdirektion of the Canton Zurich, priority 1995, dated 2000)
# Peptide text beside a SMILES is read from it. * marks the point of attachment. Cbz = O=C(OCc1ccccc1)*
# Tested on: C6 cells
# Assay: C6 cell spreading on PLYS or CNS myelin with protease inhibitors
# Assay type: cell-based, rat
# Conditions: for effect on C6 cell spreading on CNS myelin: Table X
# Procedure: Rat C6, mouse NIH 3T3 and B16 cells were cultured in Dulbecco's modified Eagle's medium (DMEM) supplemented with 10% fetal calf serum (FCS), usually to maximally 70-80% confluency. Cells were harvested with a short trypsin treatment (0.1% in Ca^2+ /Mg^2+ -free Hank's medium for 90 seconds) stopped by addition of FCS in excess, collected by centrifugation. Cells were resuspended in either DMEM/FCS or defined serum-free medium (MEM) and used for experiments. Dissociated rat CNS glial cells were prepared starting from optic nerves of 6-7 days old Lewis rats as described in Section 6.1.1, supra and plated into poly-D-lysine (PLYS) coated wells (100 mm^2, 100 μl medium) at a density of 20,000 cells per well. The culture medium was an enriched L15 medium with 5% rat serum, penicillin and streptomycin. C6, 3T3 and B16 cells were added to 2 day old cultures at a concentration of 30,000 cells per well, incubated for two hours and fixed with warm 4% formalin in phosphate buffer. Inhibitory oligodendrocytes were identified by double labelling using the specific antibodies O1 and O4 (see Section 6.1.3, supra).
# Myelin from rat spinal cord (CNS) or sciatic nerve (PNS) purified on a discontinuous sucrose gradient as described in Section 6.1.5., was dried overnight onto PLYS coated wells (20 μg protein/well of 100 mm^2 surface). Unbound membranes were removed by three washes with Ca^2+ /Mg^2+ -free Hank's solution. Myelin coated wells were immediately used in substrate testing assays by the addition of 9,000 cells (C6, 3T3, or B16) per cm^2. Alternatively, we used extracted CNS myelin protein, or SDS-PAGE purified 35 and 250 kD inhibitory proteins reconstituted in liposomes (see Section 7.1.5, supra). Experiments were scored at different time points using a phase contrast microscope equipped with a photocamera. Quantifications were done using a surface integration program; three arbitrary fields were photographed for each well at a magnitude of 80×, at least 25 cells per picture were measured. Each point represents the mean of at least 3 wells±SEM. Results are expressed as μ^2 of projected cell surface, or as degree, which was calculated by subtracting from the projected surface value of a spreading cell, the surface value of a completely spheric cell.
molecule,measurement,setting,value
"O=S(=O)(F)Cc1ccccc1 [PMSF, Phenyl methyl sulfonyl fluoride]",Spreading on: PLYS (% of control on PLYS),"inhibitor 4.0 mM, 150 minutes",100 % of control on PLYS
same,Spreading on: CNS (% of control on PLYS),"inhibitor 4.0 mM, CNS myelin, 150 minutes",94 % of control on PLYS
same,Inhibition on CNS (%),"inhibitor 4.0 mM, PLYS value minus CNS myelin value",6%
CC(C)C[C@H](NC(=O)[C@@H](O)[C@H](N)Cc1ccccc1)C(=O)O [bestatine],effect on C6 cell spreading on CNS myelin,,did not impair C6 cell spreading
same,Inhibition on CNS (%),inhibitor 0.1 mM,0%
same,Spreading on: CNS (% of control on PLYS),"inhibitor 0.1 mM, CNS myelin, 150 minutes",104 % of control on PLYS
NC(=O)CNC(=O)CNC(=O)OCc1ccccc1 [cbz-gly-gly-NH2] (Cbz-Gly-Gly-NH2),Spreading on: CNS (% of control on PLYS),"inhibitor 1.0 mM, CNS myelin, 150 minutes",99 % of control on PLYS
same,Inhibition on CNS (%),"inhibitor 1.0 mM, PLYS value minus CNS myelin value",1%
"CC(C)C[C@H](NC(=O)[C@H](Cc1ccccc1)NCC(=O)O)C(=O)O [cm-phe-leu, Carboxymethyl-phe-leu]",effect on C6 cell spreading on CNS myelin,,did not inhibit C6 cell spreading
same,Spreading on: PLYS (% of control on PLYS),"inhibitor 0.5 mM, 150 minutes",95 % of control on PLYS
same,Spreading on: CNS (% of control on PLYS),"inhibitor 0.5 mM, CNS myelin, 150 minutes",92 % of control on PLYS
same,Inhibition on CNS (%),"inhibitor 0.5 mM, PLYS value minus CNS myelin value",3%
CC(C)C[C@H](NP(=O)(O)O[C@@H]1O[C@@H](C)[C@H](O)[C@@H](O)[C@H]1O)C(=O)N[C@@H](Cc1c[nH]c2ccccc12)C(=O)O [phosphoramidon],activity at 300 µM,"Rattus norvegicus, C6, 2.5 h, inhibitor 0.3 mM, CNS myelin, 150 minutes, read-out: Spreading on: CNS (% of control on PLYS)",91%
same,inhibition at 300 µM,"Rattus norvegicus, C6, inhibitor 0.3 mM, PLYS value minus CNS myelin value",9%
same,effect on C6 cell spreading on CNS myelin,,did not impair C6 cell spreading
"2-macroglobulin: general protease inhibitor (protein, UniProt P01023 24-1474, looked up) Alpha-2-macroglobulin: SVSGKPQYMVLVPSLLHTETTEKGCVLLSYLNETVTVSASLESVRGNRSLFTDLEAENDVLHCVAFAVPKSSSNEEVMFLTVQVKGPTQEFKKRTTVMVKNEDSLVFVQTDKSIYKPGQTVKFRVVSMDENFHPLNELIPLVYIQDPKGNRIAQWQSFQLEGGLKQFSFPLSSEPFQGSYKVVVQKKSGGRTEHPFTVEEFVLPKFEVQVTVPKIITILEEEMNVSVCGLYTYGKPVPGHVTVSICRKYSDASDCHGEDSQAFCEKFSGQLNSHGCFYQQVKTKVFQLKRKEYEMKLHTEAQIQEEGTVVELTGRQSSEITRTITKLSFVKVDSHFRQGIPFFGQVRLVDGKGVPIPNKVIFIRGNEANYYSNATTDEHGLVQFSINTTNVMGTSLTVRVNYKDRSPCYGYQWVSEEHEEAHHTAYLVFSPSKSFVHLEPMSHELPCGHTQTVQAHYILNGGTLLGLKKLSFYYLIMAKGGIVRTGTHGLLVKQEDMKGHFSISIPVKSDIAPVARLLIYAVLPTGDVIGDSAKYDVENCLANKVDLSFSPSQSLPASHAHLRVTAAPQSVCALRAVDQSVLLMKPDAELSASSVYNLLPEKDLTGFPGPLNDQDNEDCINRHNVYINGITYTPVSSTNEKDMYSFLEDMGLKAFTNSKIRKPKMCPQLQQYEMHGPEGLRVGFYESDVMGRGHARLVHVEEPHTETVRKYFPETWIWDLVVVNSAGVAEVGVTVPDTITEWKAGAFCLSEDAGLGISSTASLRAFQPFFVELTMPYSVIRGEAFTLKATVLNYLPKCIRVSVQLEASPAFLAVPVEKEQAPHCICANGRQTVSWAVTPKSLGNVNFTVSAEALESQELCGTEVPSVPEHGRKDTVIKPLLVEPEGLEKETTFNSLLCPSGGEVSEELSLKLPPNVVEESARASVSVLGDILGSAMQNTQNLLQMPYGCGEQNMVLFAPNIYVLDYLNETQQLTPEIKSKAIGYLNTGYQRQLNYKHYDGSYSTFGERYGRNQGNTWLTAFVLKTFAQARAYIFIDEAHITQALIWLSQRQKDNGCFRSSGSLLNNAIKGGVEDEVTLSAYITIALLEIPLTVTHPVVRNALFCLESAWKTAQEGDHGSHVYTKALLAYAFALAGNQDKRKEVLKSLNEEAVKKDNSVHWERPQKPKAPVGHFYEPQAPSAEVEMTSYVLLAYLTAQPAPTSEDLTSATNIVKWITKQQNAQGGFSSTQDTVVALHALSKYGAATFTRTGKAAQVTIQSSGTFSSKFQVDNNNRLLLQQVSLPELPGEYSMKVTGEGCVYLQTSLKYNILPEKEEFPFALGVQTLPQTCDEPKAHTSFQISLSVSYTGSRSASNMAIVDVKMVSGFIPLKPTVKMLERSNHVSRTEVSSNHVLIYLDKVSNQTLSLFFTVLQDVPVRDLKPAIVKVYDYYETDEFAIAEYNAPCSKDLGNA",Spreading on: PLYS (% of control on PLYS),"inhibitor 3.0 μM, 150 minutes",70 % of control on PLYS
same,Spreading on: CNS (% of control on PLYS),"inhibitor 3.0 μM, CNS myelin, 150 minutes",52 % of control on PLYS
same,Inhibition on CNS (%),"inhibitor 3.0 μM, PLYS value minus CNS myelin value",18%
